Legend:
Histamine H1 receptor = Histamine H1 receptor (Homo sapiens, UniProt P35367); experiment: Binding affinity for the human Histamine H1 Receptor
Histamine H3 receptor = Histamine H3 receptor (Rattus norvegicus, UniProt Q9QYN8); experiment: Binding affinity for the rat cortical Histamine H3 receptor
Histamine H2 receptor = Histamine H2 receptor (Homo sapiens, UniProt P25021); experiment: Binding affinity for the human Histamine H2 receptor
Chain of Histamine H2 receptor (P25021 whole entry): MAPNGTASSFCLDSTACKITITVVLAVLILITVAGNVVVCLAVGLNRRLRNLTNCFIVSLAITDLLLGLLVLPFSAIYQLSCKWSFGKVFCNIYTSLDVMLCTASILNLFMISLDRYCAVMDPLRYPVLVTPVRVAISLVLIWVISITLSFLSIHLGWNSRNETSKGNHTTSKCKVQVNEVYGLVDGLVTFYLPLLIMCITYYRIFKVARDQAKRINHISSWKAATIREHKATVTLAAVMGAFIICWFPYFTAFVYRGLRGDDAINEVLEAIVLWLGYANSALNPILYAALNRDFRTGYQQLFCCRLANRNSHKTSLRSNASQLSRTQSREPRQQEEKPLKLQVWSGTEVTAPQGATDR

Chain of Histamine H3 receptor (Q9QYN8 whole entry): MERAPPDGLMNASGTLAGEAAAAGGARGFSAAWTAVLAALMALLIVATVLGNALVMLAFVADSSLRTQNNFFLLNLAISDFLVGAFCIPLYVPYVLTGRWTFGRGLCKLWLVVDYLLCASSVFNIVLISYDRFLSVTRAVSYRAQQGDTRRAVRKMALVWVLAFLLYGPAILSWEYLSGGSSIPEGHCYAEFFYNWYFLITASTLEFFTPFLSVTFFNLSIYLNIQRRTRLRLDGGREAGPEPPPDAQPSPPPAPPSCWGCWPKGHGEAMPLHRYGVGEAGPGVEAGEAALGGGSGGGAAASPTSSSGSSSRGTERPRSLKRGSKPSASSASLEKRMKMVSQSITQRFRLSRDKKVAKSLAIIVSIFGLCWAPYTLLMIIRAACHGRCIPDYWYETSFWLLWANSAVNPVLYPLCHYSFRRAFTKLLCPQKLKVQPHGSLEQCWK
Chain of Histamine H1 receptor (P35367 whole entry): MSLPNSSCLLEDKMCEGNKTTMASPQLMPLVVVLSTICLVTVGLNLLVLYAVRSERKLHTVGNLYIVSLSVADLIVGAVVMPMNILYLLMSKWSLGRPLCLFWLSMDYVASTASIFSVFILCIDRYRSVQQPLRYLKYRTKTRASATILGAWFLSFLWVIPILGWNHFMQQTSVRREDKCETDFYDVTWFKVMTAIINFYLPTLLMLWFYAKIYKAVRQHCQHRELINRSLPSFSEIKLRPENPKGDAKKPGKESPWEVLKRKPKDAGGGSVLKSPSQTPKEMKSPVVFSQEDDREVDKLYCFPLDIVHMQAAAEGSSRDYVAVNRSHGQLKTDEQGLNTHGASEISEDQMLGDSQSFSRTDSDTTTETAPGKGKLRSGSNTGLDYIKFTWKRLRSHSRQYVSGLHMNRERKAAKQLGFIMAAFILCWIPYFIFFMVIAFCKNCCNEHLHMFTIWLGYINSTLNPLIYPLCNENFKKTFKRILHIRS

Ki (Histamine H1 receptor) [nM]	Ki (Histamine H3 receptor) [nM]	Ki (Histamine H2 receptor) [nM]	SMILES
79.4	29.5	19500	CCCCCC(=O)c1ccc(OCCCN2CCN(C(=O)c3sccc3Cl)CC2)cc1
309	5.01	17800	CCCCCC(=O)c1ccc(OCCCN2CCN(C(=O)OC(C)C)CC2)cc1
–	58900	–	CCCCCC(=O)c1ccc(OCCCC2CCNCC2)cc1
479	6.31	22400	CCCCCC(=O)c1ccc(OCCCN2CCN(C(=O)c3ccncc3)CC2)cc1
105	8.51	12900	CCCCCC(=O)c1ccc(OCCCN2CCN(C(=O)c3occc3C)CC2)cc1
4270	44.7	27500	CCCCCC(=O)c1ccc(OCCCN2CCN(C(=O)c3cnco3)CC2)cc1
3390	27.5	27500	CCCCCC(=O)c1ccc(OCCCN2CCN(CCC)CC2)cc1
1410	4.68	79400	CCOC(=O)N1CCN(CCCOc2ccc(C(=O)C3CC3)cc2)CC1
275	1.38	12600	CCCCCC(=O)c1ccc(OCCCN2CCN(C(=O)OCC)CC2)cc1
871	6.46	22900	CCCCCC(=O)c1ccc(OCCCN2CCN(C(=O)CCC)CC2)cc1
11200	12.6	20900	CCCCCC(=O)c1ccc(OCCCN2CCN(S(=O)(=O)C(C)C)CC2)cc1
355	3.16	10200	CCCCCC(=O)c1ccc(OCCCN2CCN(C(=O)C3CCC3)CC2)cc1
4170	5.89	17800	CCCCCC(=O)c1ccc(OCCCN2CCN(C(=O)N3CCOCC3)CC2)cc1
562	3.72	2140	CCCCCCCC(=O)c1ccc(OCCCN2CCN(C(=O)OCC)CC2)cc1
97.7	15.8	8130	CCCCCC(=O)c1ccc(OCCCN2CCN(C(=O)c3ccc(C)s3)CC2)cc1
741	3.63	22400	CCCC(=O)c1ccc(OCCCN2CCN(C(=O)OCC)CC2)cc1
74.1	16.2	14800	CCCCCC(=O)c1ccc(OCCCN2CCN(C(=O)c3cccs3)CC2)cc1
813	39.8	8320	CCOC(=O)N1CCN(CCCOc2ccc(C(=O)c3ccc(OC)cc3)cc2)CC1
724	20.4	60300	CCCCCC(=O)c1ccc(OCCCN2CCN(C(=O)c3cccnc3)CC2)cc1
447	58.9	6170	CCOC(=O)N1CCN(CCCOc2ccc(C(=O)c3ccc(SC)cc3)cc2)CC1

Ki (Histamine H1 receptor) [nM]	Ki (Histamine H3 receptor) [nM]	Ki (Histamine H2 receptor) [nM]	SMILES
1050	7.41	14800	CCCCCC(=O)c1ccc(OCCCN2CCN(C(=O)N3CCCC3)CC2)cc1
661	13.5	7590	CCCCCC(=O)c1ccc(OCCCN2CCN(CCCC)CC2)cc1
–	63.1	–	CCCCCC(=O)c1ccc(OCCCN2CCCCC2)cc1
21400	57.5	24500	CCCCCC(=O)c1ccc(OCCCN2CCN(C(=O)C(C)(C)O)CC2)cc1
977	55	22400	C=C(C)C(=O)c1ccc(OCCCN2CCN(C(=O)OCC)CC2)cc1
275	10	3720	CCCCCC(=O)c1ccc(OCCCN2CCN(C(=O)OCC(C)C)CC2)cc1
56.2	4.07	11700	CCCCCC(=O)c1ccc(OCCCN2CCN(C(=O)c3cccn3C)CC2)cc1
209	67.6	42700	CCOC(=O)N1CCN(CCCOc2ccc(C(=O)c3ccc(F)cc3)cc2)CC1
13500	37.2	12300	CCCCCC(=O)c1ccc(OCCCN2CCN(S(=O)(=O)c3ccc(C#N)cc3)CC2)cc1
525	4.47	19500	CCCCCC(=O)c1ccc(OCCCN2CCN(C(=O)c3c[nH]cn3)CC2)cc1
562	13.2	1550	CCOC(=O)N1CCN(CCCOc2ccc(C(=O)c3ccc(C(C)(C)C)cc3)cc2)CC1
1910	3.16	31600	CCCCCC(=O)c1ccc(OCCCN2CCN(C(=O)CC)CC2)cc1
501	7.94	2690	CCCCCCCCC(=O)c1ccc(OCCCN2CCN(C(=O)OCC)CC2)cc1
617	7.24	6760	CCOC(=O)N1CCN(CCCOc2ccc(C(=O)/C=C/c3ccc(OC)cc3)cc2)CC1
1660	5.37	56200	CCOC(=O)N1CCN(CCCOc2ccc(C(=O)CC)cc2)CC1
288	36.3	12300	CCCCCC(=O)c1ccc(OCCCN2CCN(C(=O)c3ccccc3)CC2)cc1
427	6.31	25100	CCOC(=O)N1CCN(CCCOc2ccc(C(=O)/C=C/c3cccnc3)cc2)CC1
1580	21.4	23400	CCCCCC(=O)c1ccc(OCCCN2CCN(C(=O)NCC)CC2)cc1
1780	2.14	31600	CCCCCC(=O)c1ccc(OCCCN2CCN(C(=O)C3CC3)CC2)cc1
1070	3.02	12000	CCCCCC(=O)c1ccc(OCCCN2CCN(C(=O)OC)CC2)cc1

Ki (Histamine H1 receptor) [nM]	Ki (Histamine H3 receptor) [nM]	Ki (Histamine H2 receptor) [nM]	SMILES
1100	11	22900	CCCCCC(=O)c1ccc(OCCCN2CCN(C(=O)CSCC)CC2)cc1
2240	15.8	18600	CCCCCC(=O)c1ccc(OCCCN2CCN(CC3CC3)CC2)cc1
355	38.9	21900	CCOC(=O)N1CCN(CCCOc2ccc(C(=O)C=C(C)C)cc2)CC1
3980	–	29500	CCCCCC(=O)c1ccc(OCCCN2CCN(C(=O)C(C)C)CC2)cc1
380	288	3720	CCOC(=O)N1CCN(CCCOc2ccc(C(=O)c3cccc(C)c3)cc2)CC1
933	69.2	12600	CCOC(=O)N1CCN(CCCOc2ccc(C(=O)Cc3ccccc3)cc2)CC1
933	7.24	69200	CCOC(=O)N1CCN(CCCOc2ccc(C(=O)CC(C)C)cc2)CC1
26300	21.4	83200	CCCCCC(=O)c1ccc(OCCCN2CCN(S(C)(=O)=O)CC2)cc1
603	25.1	7940	CCOC(=O)N1CCN(CCCOc2ccc(C(=O)C3CCCCC3)cc2)CC1
575	20.4	1860	CCCCCC(=O)c1ccc(OCCCN2CCN(C(=O)OCCCC)CC2)cc1
2040	18.2	46800	CCCCCC(=O)c1ccc(OCCCN2CCN(C(=O)c3cnccn3)CC2)cc1
1200	9.55	11200	CCCCCC(=O)c1ccc(OCCCN2CCN(C(=O)NC(C)C)CC2)cc1
457	9.33	9550	CCCCCC(=O)c1ccc(OCCCN2CCN(CC(C)C)CC2)cc1
1020	25.1	17400	CCOC(=O)N1CCN(CCCOc2ccc(C(=O)c3cccc(F)c3F)cc2)CC1
60.3	16.6	7080	CCCCCC(=O)c1ccc(OCCCN2CCN(Cc3nccs3)CC2)cc1
398	10.5	20000	CCCCCC(=O)c1ccc(OCCCN2CCN(C(=O)c3ccco3)CC2)cc1
6030	26.9	14500	CCCCCC(=O)c1ccc(OCCCN2CCNCC2)cc1
417	52.5	18600	CCCCCC(=O)c1ccc(OCCCN2CCN(C(=O)c3ccccn3)CC2)cc1
2240	5.01	39800	CCOC(=O)N1CCN(CCCOc2ccc(C(C)=O)cc2)CC1

SMILES	Ki (Histamine H1 receptor) [nM]	Ki (Histamine H3 receptor) [nM]	Ki (Histamine H2 receptor) [nM]
CCCCCC(=O)c1ccc(OCCCN2CCN(C(=O)Cc3ccccc3)CC2)cc1	56.2	10	8910

Reference: ChEMBL document CHEMBL1135198, “Structure-activity relationships of non-imidazole H(3) receptor ligands. Part 1” (Bioorg Med Chem Lett, 2002)
